According to paper PMC10120310 (Cell Insight, 2022):

How the values were obtained:
H1N1 virus = experiment: microbe, parasite or virus in culture; assay type: cell-based; conditions: Influenza A virus, H1N1, MDCK
influenza NA protein = influenza NA protein (Influenza A virus, UniProt P03470); assay type: cell-based, influenza virus (WSN)
in vitro = conditions: dog

Sequence of influenza NA protein (P03470 whole entry, looked up): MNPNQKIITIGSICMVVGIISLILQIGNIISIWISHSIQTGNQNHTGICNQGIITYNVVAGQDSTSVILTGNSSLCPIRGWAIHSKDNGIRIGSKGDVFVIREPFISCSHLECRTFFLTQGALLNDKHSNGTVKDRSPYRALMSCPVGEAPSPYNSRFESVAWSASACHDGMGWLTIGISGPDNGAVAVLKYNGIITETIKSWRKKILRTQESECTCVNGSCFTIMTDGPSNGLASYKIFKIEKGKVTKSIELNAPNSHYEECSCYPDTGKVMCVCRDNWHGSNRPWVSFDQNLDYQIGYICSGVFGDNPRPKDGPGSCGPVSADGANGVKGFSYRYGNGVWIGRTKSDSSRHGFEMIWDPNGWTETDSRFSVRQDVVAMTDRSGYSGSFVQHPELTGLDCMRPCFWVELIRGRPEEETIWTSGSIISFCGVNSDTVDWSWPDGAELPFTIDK

CCOC(=O)C1=C[C@@H](OC(CC)CC)[C@H](NC(C)=O)[C@@H](N)C1 [OSP, oseltamivir phosphate]
EC50 (H1N1 virus): 360 nM | NA protein degradation (influenza NA protein): no degradation activity | CC50 (in vitro): > 50000 nM
